Reference: patent US12509461B2, “Enhanced performance of amorphous solid and solubilized formulations for achieving therapeutic plasma concentrations” (BRISTOL-MYERS SQUIBB COMPANY, priority 2019, dated 2025)

How the values were obtained:
[1] = Aqueous solubility and ionization of Compound (I); format: physicochemical
Source text: [drawing 2] and is referred to herein as “Compound (I)”. Compound (I), a process to prepare Compound (I), and methods of treatment employing Compound (I) are disclosed in U.S. Patent Application Publication No. 2016/0096839, which is assigned to the present assignee and incorporated herein by reference in its entirety. […] These characteristics of Compound (I) render it difficult to formulate for oral administration to achieve therapeutically effective blood levels.

[2] = Microcentrifuge dissolution test in 0.5% SIF in PBS pH 6.5; format: physicochemical; settings: control; 1000 μg/mL if all of drug had dissolved
Experimental: Microcentrifuge dissolution tests were performed in a 37° C. temperature-controlled box. Weighed 1 mg of sample into each of two 2.0 mL Sorenson microcentrifuge tubes. Added 1.8 mL of 0.5% SIF in phosphate buffered saline (PBS) (pH 6.5) to each tube and started the timer. Vortexed the samples for 1 minute on Setting 8 on a Fisher Vortex Genie 2. Centrifuged the samples for 1 minute at 13,000 rpm using an IEC Micromax microcentrifuge. When the timer reads 4 minutes, extracted 50 μL of supernatant from each microcentrifuge tube into a HPLC vial containing 250 μL of diluent (HPLC-grade 95:5 THF:Water). Vortexed the mixtures for 25 seconds. Repeated the steps for following time points: 10, 20, 40, and 90 minutes, and again at 20 hours.
Analyzed the samples by HPLC using the method below:
As a control, crystalline Compound (I) alone was evaluated using the same procedure. A sufficient amount of material was added so that the concentration of Compound (I) would have been 1000 μg/mL, if all of drug had dissolved.
The concentrations of Compound (I) obtained in these samples were used to determine the maximum dissolved concentration of Compound (I) in solution during the first ninety minutes of the test (MDC90), the area under the concentration-versus-time curve during the initial ninety minutes (AUC90).

Compound: C[C@@H]1CCC[C@H](n2cnc(-c3cc(Cl)ccc3-n3cc(Cl)nn3)cc2=O)c2cc(ccn2)-c2c(cnn2C(F)F)NC1=O [Compound (I), (9R,13S)-13-{4-[5-chloro-2-(4-chloro-1H-1,2,3-triazol-1-yl)phenyl]-6-oxo-1,6-dihydropyrimidin-1-yl}-3-(difluoromethyl)-9-methyl-3,4,7,15-tetraazatricyclo[12.3.1.0^2,6]octadeca-1(18),2(6),4,14,16-pentaen-8-one]
- ionization ([1]; physiologically relevant region): non-ionizable
- aqueous solubility ([1]; room temperature): low aqueous solubility

Compound: C[C@@H]1CCC[C@H](n2cnc(-c3cc(Cl)ccc3-n3cc(Cl)nn3)cc2=O)c2cc(ccn2)-c2c(cnn2C(F)F)NC1=O [Crystalline API, (9R,13S)-13-{4-[5-chloro-2-(4-chloro-1H-1,2,3-triazol-1-yl)phenyl]-6-oxo-1,6-dihydropyrimidin-1-yl}-3-(difluoromethyl)-9-methyl-3,4,7,15-tetraazatricyclo[12.3.1.0^2,6]octadeca-1(18),2(6),4,14,16-pentaen-8-one]
- AUC90 [2]: 1810 µg/mL
- Cmax90 [2]: 26000 ng/mL
